Measured values taken from ChEMBL document CHEMBL4819050, “Discovery of a novel series of guanidinebenzoates as gut-restricted enteropeptidase and trypsin dual inhibitors for the treatment of metabolic syndrome” (Bioorg Med Chem Lett, 2021).

tested on: not listed separately; assay: Volume of distribution at steady state in C57BL/6J mouse at 5 mg/kg, iv; assay type: ADME, organism-based; details: in vivo, read-out: Vdss

Compound | Vd
N=C(N)Nc1ccc(C(=O)Oc2ccc(CC(=O)O)n3ncnc23)cc1 | 3.68 L/kg

organism: Bos taurus; assay: Inhibition of bovine trypsin assessed as protease activity using D-CHA-AR-AMC as substrate at 0.1 uM by fluorescence assay relative to control; parameters: scale not given: the % may be the effect or the level left; details: not given

Compound | Activity
N=C(N)Nc1ccc(C(=O)Oc2ccc(CC(=O)NCC(=O)O)n3ncnc23)cc1 | 99.7%
CS(=O)(=O)NC(=O)Cc1ccc(OC(=O)c2ccc(NC(=N)N)cc2)c2ncnn12 | 98.8%
N=C(N)Nc1ccc(C(=O)Oc2ccc(CC(=O)N(CC(=O)O)CC(=O)O)n3ncnc23)cc1 | 89.6%
N=C(N)Nc1ccc(C(=O)Oc2ccc(CC(=O)O)n3ncnc23)cc1F | 87.6%
N=C(N)Nc1ccc(C(=O)Oc2cc(CCC(=O)O)cn3ncnc23)cc1 | 99.2%
N=C(N)Nc1ccc(C(=O)Oc2ccc(CC(=O)NC(CC(=O)O)(CC(=O)O)CC(=O)O)n3ncnc23)cc1 | 94.1%
N=C(N)Nc1ccc(C(=O)Oc2ccc(CC(=O)O)n3ccnc23)cc1 | 96.3%
CONC(=N)c1ccc(C(=O)Oc2ccc(CC(=O)O)n3ncnc23)cc1 | -3.11%
N=C(N)Nc1ccc(C(=O)Oc2ccc(CC(=O)N[C@@H](CC(=O)O)C(=O)O)n3ncnc23)cc1 | 98.3%
N=C(N)Nc1ccc(C(=O)Oc2ccc(CC(=O)N[C@@H](CC(=O)O)C(=O)O)n3ccnc23)cc1 | 99.3%
N=C(N)Nc1ccc(C(=O)Oc2ccc(Cc3nn[nH]n3)n3ncnc23)cc1 | 89.3%
N=C(N)Nc1ccc(C(=O)Oc2ccc(CC(=O)O)n3ncnc23)cc1 | 97.2%

tested on: not listed separately; assay: AUClast in C57BL/6J mouse at 20 mg/kg, po; assay type: ADME, organism-based; parameters: route oral, time 0 - last, dose 20 mg/kg; details: in vivo

Compound | AUC(0-t)
N=C(N)Nc1ccc(C(=O)Oc2ccc(CC(=O)O)n3ncnc23)cc1 | 27 ng·h/mL

organism: Bos taurus; assay: Inhibition of bovine trypsin assessed as protease activity using D-CHA-AR-AMC as substrate at 10 uM by fluorescence assay relative to control; parameters: scale not given: the % may be the effect or the level left; details: not given

Compound | Activity
N=C(N)Nc1ccc(C(=O)Oc2ccc(CC(=O)NCC(=O)O)n3ncnc23)cc1 | 100%
CS(=O)(=O)NC(=O)Cc1ccc(OC(=O)c2ccc(NC(=N)N)cc2)c2ncnn12 | 99.9%
N=C(N)Nc1ccc(C(=O)Oc2ccc(CC(=O)N(CC(=O)O)CC(=O)O)n3ncnc23)cc1 | 100%
N=C(N)Nc1ccc(C(=O)Oc2ccc(CC(=O)O)n3ncnc23)cc1F | 100%
N=C(N)Nc1ccc(C(=O)Oc2cc(CCC(=O)O)cn3ncnc23)cc1 | 100%
N=C(N)Nc1ccc(C(=O)Oc2ccc(CC(=O)NC(CC(=O)O)(CC(=O)O)CC(=O)O)n3ncnc23)cc1 | 100%
N=C(N)Nc1ccc(C(=O)Oc2ccc(CC(=O)O)n3ccnc23)cc1 | 101%
CONC(=N)c1ccc(C(=O)Oc2ccc(CC(=O)O)n3ncnc23)cc1 | 18.2%
N=C(N)Nc1ccc(C(=O)Oc2ccc(CC(=O)N[C@@H](CC(=O)O)C(=O)O)n3ncnc23)cc1 | 100%
N=C(N)Nc1ccc(C(=O)Oc2ccc(CC(=O)N[C@@H](CC(=O)O)C(=O)O)n3ccnc23)cc1 | 100%
N=C(N)Nc1ccc(C(=O)Oc2ccc(Cc3nn[nH]n3)n3ncnc23)cc1 | 100%
N=C(N)Nc1ccc(C(=O)Oc2ccc(CC(=O)O)n3ncnc23)cc1 | 100%

tested on: not listed separately; assay: In vivo inhibition of EP in diet induced obese C57BL/6J mouse assessed as increase in fecal protein content at 30 mg/kg, po measured after 24 hrs relative to control; assay type: functional; details: not given

Compound | fold change (FC)
N=C(N)Nc1ccc(C(=O)Oc2ccc(CC(=O)N(CC(=O)O)CC(=O)O)n3ncnc23)cc1 | 1.5
N=C(N)Nc1ccc(C(=O)Oc2ccc(CC(=O)NC(CC(=O)O)(CC(=O)O)CC(=O)O)n3ncnc23)cc1 | 1.7
N=C(N)Nc1ccc(C(=O)Oc2ccc(CC(=O)N[C@@H](CC(=O)O)C(=O)O)n3ncnc23)cc1 | 2.4
N=C(N)Nc1ccc(C(=O)Oc2ccc(CC(=O)O)n3ncnc23)cc1 | 2.4

biological target: Enteropeptidase (Homo sapiens) (UniProt P98073); assay: Inhibition of full length recombinant human EP expressed in CHO cells assessed as protease activity using […] as substrate at 10 uM by fluorescence assay relative to control; parameters: scale not given: the % may be the effect or the level left; details: not given
Sequence (P98073 2-784 limits assumed): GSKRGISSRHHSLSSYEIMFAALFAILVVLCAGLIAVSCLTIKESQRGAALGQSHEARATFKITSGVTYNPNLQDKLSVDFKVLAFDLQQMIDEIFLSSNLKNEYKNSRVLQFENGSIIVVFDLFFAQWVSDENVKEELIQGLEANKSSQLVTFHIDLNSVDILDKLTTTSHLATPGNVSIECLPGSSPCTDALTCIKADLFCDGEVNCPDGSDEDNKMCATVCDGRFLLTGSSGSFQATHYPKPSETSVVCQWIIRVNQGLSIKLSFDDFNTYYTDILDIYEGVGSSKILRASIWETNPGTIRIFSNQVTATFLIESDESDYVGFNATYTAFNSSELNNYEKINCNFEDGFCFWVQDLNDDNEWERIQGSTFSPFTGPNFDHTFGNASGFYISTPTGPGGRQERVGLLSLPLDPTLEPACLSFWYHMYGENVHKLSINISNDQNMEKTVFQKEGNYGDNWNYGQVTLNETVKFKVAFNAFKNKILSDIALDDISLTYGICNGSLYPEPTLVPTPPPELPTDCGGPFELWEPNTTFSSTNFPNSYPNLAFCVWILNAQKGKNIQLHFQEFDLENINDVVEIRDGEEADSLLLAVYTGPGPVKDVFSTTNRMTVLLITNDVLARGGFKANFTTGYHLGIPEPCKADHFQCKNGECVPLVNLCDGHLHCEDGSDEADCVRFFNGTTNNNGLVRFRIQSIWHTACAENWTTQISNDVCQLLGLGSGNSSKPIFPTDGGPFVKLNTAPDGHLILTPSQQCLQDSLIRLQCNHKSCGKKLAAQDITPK
Sequence (P98073 785-1019 limits assumed): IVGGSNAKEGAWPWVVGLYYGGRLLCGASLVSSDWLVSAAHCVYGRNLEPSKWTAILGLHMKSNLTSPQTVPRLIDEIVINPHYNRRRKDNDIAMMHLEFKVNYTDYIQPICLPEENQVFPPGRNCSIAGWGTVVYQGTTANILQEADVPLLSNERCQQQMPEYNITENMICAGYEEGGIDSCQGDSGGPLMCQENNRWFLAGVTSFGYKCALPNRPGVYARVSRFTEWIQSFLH

Compound | Activity
N=C(N)Nc1ccc(C(=O)Oc2ccc(CC(=O)NCC(=O)O)n3ncnc23)cc1 | 100%
CS(=O)(=O)NC(=O)Cc1ccc(OC(=O)c2ccc(NC(=N)N)cc2)c2ncnn12 | 100%
N=C(N)Nc1ccc(C(=O)Oc2ccc(CC(=O)N(CC(=O)O)CC(=O)O)n3ncnc23)cc1 | 101%
N=C(N)Nc1ccc(C(=O)Oc2ccc(CC(=O)O)n3ncnc23)cc1F | 100%
N=C(N)Nc1ccc(C(=O)Oc2cc(CCC(=O)O)cn3ncnc23)cc1 | 101%
N=C(N)Nc1ccc(C(=O)Oc2ccc(CC(=O)NC(CC(=O)O)(CC(=O)O)CC(=O)O)n3ncnc23)cc1 | 100%
N=C(N)Nc1ccc(C(=O)Oc2ccc(CC(=O)O)n3ccnc23)cc1 | 100%
CONC(=N)c1ccc(C(=O)Oc2ccc(CC(=O)O)n3ncnc23)cc1 | 34%
N=C(N)Nc1ccc(C(=O)Oc2ccc(CC(=O)N[C@@H](CC(=O)O)C(=O)O)n3ncnc23)cc1 | 101%
N=C(N)Nc1ccc(C(=O)Oc2ccc(CC(=O)N[C@@H](CC(=O)O)C(=O)O)n3ccnc23)cc1 | 100%
N=C(N)Nc1ccc(C(=O)Oc2ccc(Cc3nn[nH]n3)n3ncnc23)cc1 | 100%
N=C(N)Nc1ccc(C(=O)Oc2ccc(CC(=O)O)n3ncnc23)cc1 | 100%

tested on: not listed separately; assay: Oral bioavailability in C57BL/6J mouse at 20 mg/kg; assay type: ADME, organism-based; details: in vivo

Compound | bioavailability
N=C(N)Nc1ccc(C(=O)Oc2ccc(CC(=O)O)n3ncnc23)cc1 | 1.6%

tested on: not listed separately; assay: Cmax in C57BL/6J mouse at 20 mg/kg, po; assay type: ADME, organism-based; parameters: route oral, dose 20 mg/kg; details: in vivo

Compound | Cmax
N=C(N)Nc1ccc(C(=O)Oc2ccc(CC(=O)O)n3ncnc23)cc1 | 43 ng/mL

organism: Bos taurus; assay: Inhibition of bovine trypsin assessed as ratio of Kinact/Kiapp; details: not given

Compound | Ratio
CS(=O)(=O)NC(=O)Cc1ccc(OC(=O)c2ccc(NC(=N)N)cc2)c2ncnn12 | 163000 M⁻¹ s⁻¹
N=C(N)Nc1ccc(C(=O)Oc2ccc(CC(=O)O)n3ncnc23)cc1F | 69700 M⁻¹ s⁻¹
N=C(N)Nc1ccc(C(=O)Oc2ccc(CC(=O)O)n3ccnc23)cc1 | 111000 M⁻¹ s⁻¹
N=C(N)Nc1ccc(C(=O)Oc2ccc(CC(=O)O)n3ncnc23)cc1 | 159000 M⁻¹ s⁻¹

biological target: Enteropeptidase (Homo sapiens) (UniProt P98073); assay: Inhibition of full length recombinant human EP expressed in CHO cells assessed as protease activity using […] as substrate at 1 uM by fluorescence assay relative to control; parameters: scale not given: the % may be the effect or the level left; details: not given

Compound | Activity
N=C(N)Nc1ccc(C(=O)Oc2ccc(CC(=O)NCC(=O)O)n3ncnc23)cc1 | 101%
CS(=O)(=O)NC(=O)Cc1ccc(OC(=O)c2ccc(NC(=N)N)cc2)c2ncnn12 | 100%
N=C(N)Nc1ccc(C(=O)Oc2ccc(CC(=O)N(CC(=O)O)CC(=O)O)n3ncnc23)cc1 | 72.9%
N=C(N)Nc1ccc(C(=O)Oc2ccc(CC(=O)O)n3ncnc23)cc1F | 100%
N=C(N)Nc1ccc(C(=O)Oc2cc(CCC(=O)O)cn3ncnc23)cc1 | 103%
N=C(N)Nc1ccc(C(=O)Oc2ccc(CC(=O)NC(CC(=O)O)(CC(=O)O)CC(=O)O)n3ncnc23)cc1 | 100%
N=C(N)Nc1ccc(C(=O)Oc2ccc(CC(=O)O)n3ccnc23)cc1 | 100%
CONC(=N)c1ccc(C(=O)Oc2ccc(CC(=O)O)n3ncnc23)cc1 | 9.05%
N=C(N)Nc1ccc(C(=O)Oc2ccc(CC(=O)N[C@@H](CC(=O)O)C(=O)O)n3ncnc23)cc1 | 101%
N=C(N)Nc1ccc(C(=O)Oc2ccc(CC(=O)N[C@@H](CC(=O)O)C(=O)O)n3ccnc23)cc1 | 100%
N=C(N)Nc1ccc(C(=O)Oc2ccc(Cc3nn[nH]n3)n3ncnc23)cc1 | 101%
N=C(N)Nc1ccc(C(=O)Oc2ccc(CC(=O)O)n3ncnc23)cc1 | 100%

biological target: Enteropeptidase (Homo sapiens) (UniProt P98073); assay: Inhibition of full length recombinant human EP expressed in CHO cells assessed as ratio of Kinact/Kiapp; assay type: cell-based; details: not given

Compound | Ratio
CS(=O)(=O)NC(=O)Cc1ccc(OC(=O)c2ccc(NC(=N)N)cc2)c2ncnn12 | 181000 M⁻¹ s⁻¹
N=C(N)Nc1ccc(C(=O)Oc2ccc(CC(=O)O)n3ncnc23)cc1F | 72800 M⁻¹ s⁻¹
N=C(N)Nc1ccc(C(=O)Oc2ccc(CC(=O)O)n3ccnc23)cc1 | 210000 M⁻¹ s⁻¹
N=C(N)Nc1ccc(C(=O)Oc2ccc(CC(=O)O)n3ncnc23)cc1 | 130000 M⁻¹ s⁻¹

biological target: Enteropeptidase (Homo sapiens) (UniProt P98073); assay: Inhibition of full length recombinant human EP expressed in CHO cells assessed as protease activity using […] as substrate at 0.1 uM by fluorescence assay relative to control; parameters: scale not given: the % may be the effect or the level left; details: not given

Compound | Activity
N=C(N)Nc1ccc(C(=O)Oc2ccc(CC(=O)NCC(=O)O)n3ncnc23)cc1 | 48.1%
CS(=O)(=O)NC(=O)Cc1ccc(OC(=O)c2ccc(NC(=N)N)cc2)c2ncnn12 | 101%
N=C(N)Nc1ccc(C(=O)Oc2ccc(CC(=O)N(CC(=O)O)CC(=O)O)n3ncnc23)cc1 | 20.9%
N=C(N)Nc1ccc(C(=O)Oc2ccc(CC(=O)O)n3ncnc23)cc1F | 96.8%
N=C(N)Nc1ccc(C(=O)Oc2cc(CCC(=O)O)cn3ncnc23)cc1 | 45.2%
N=C(N)Nc1ccc(C(=O)Oc2ccc(CC(=O)NC(CC(=O)O)(CC(=O)O)CC(=O)O)n3ncnc23)cc1 | 37.8%
N=C(N)Nc1ccc(C(=O)Oc2ccc(CC(=O)O)n3ccnc23)cc1 | 101%
CONC(=N)c1ccc(C(=O)Oc2ccc(CC(=O)O)n3ncnc23)cc1 | 2.43%
N=C(N)Nc1ccc(C(=O)Oc2ccc(CC(=O)N[C@@H](CC(=O)O)C(=O)O)n3ncnc23)cc1 | 48.3%
N=C(N)Nc1ccc(C(=O)Oc2ccc(CC(=O)N[C@@H](CC(=O)O)C(=O)O)n3ccnc23)cc1 | 81.2%
N=C(N)Nc1ccc(C(=O)Oc2ccc(Cc3nn[nH]n3)n3ncnc23)cc1 | 89.7%
N=C(N)Nc1ccc(C(=O)Oc2ccc(CC(=O)O)n3ncnc23)cc1 | 97.8%

tested on: not listed separately; assay: Clearance in C57BL/6J mouse at 5 mg/kg, iv; assay type: ADME, organism-based; details: in vivo

Compound | clearance
N=C(N)Nc1ccc(C(=O)Oc2ccc(CC(=O)O)n3ncnc23)cc1 | 192 mL/min/kg

tested on: not listed separately; assay: Apparent permeability from apical to basolateral side in dog MDCK cells; assay type: ADME, cell-based, Canis lupus familiaris; details: not given

Compound | Papp A→B
N=C(N)Nc1ccc(C(=O)Oc2ccc(CC(=O)NCC(=O)O)n3ncnc23)cc1 | 1.03 ×10⁻⁶ cm/s
CS(=O)(=O)NC(=O)Cc1ccc(OC(=O)c2ccc(NC(=N)N)cc2)c2ncnn12 | 0.51 ×10⁻⁶ cm/s
N=C(N)Nc1ccc(C(=O)Oc2ccc(CC(=O)N(CC(=O)O)CC(=O)O)n3ncnc23)cc1 | 1.26 ×10⁻⁶ cm/s
N=C(N)Nc1ccc(C(=O)Oc2cc(CCC(=O)O)cn3ncnc23)cc1 | 1.12 ×10⁻⁶ cm/s
N=C(N)Nc1ccc(C(=O)Oc2ccc(CC(=O)NC(CC(=O)O)(CC(=O)O)CC(=O)O)n3ncnc23)cc1 | 1.09 ×10⁻⁶ cm/s
N=C(N)Nc1ccc(C(=O)Oc2ccc(CC(=O)O)n3ccnc23)cc1 | 1.48 ×10⁻⁶ cm/s
N=C(N)Nc1ccc(C(=O)Oc2ccc(CC(=O)N[C@@H](CC(=O)O)C(=O)O)n3ncnc23)cc1 | 0.56 ×10⁻⁶ cm/s
N=C(N)Nc1ccc(C(=O)Oc2ccc(CC(=O)N[C@@H](CC(=O)O)C(=O)O)n3ccnc23)cc1 | 0.75 ×10⁻⁶ cm/s
N=C(N)Nc1ccc(C(=O)Oc2ccc(Cc3nn[nH]n3)n3ncnc23)cc1 | 1.45 ×10⁻⁶ cm/s
N=C(N)Nc1ccc(C(=O)Oc2ccc(CC(=O)O)n3ncnc23)cc1 | 1.53 ×10⁻⁶ cm/s

organism: Bos taurus; assay: Inhibition of bovine trypsin assessed as protease activity using D-CHA-AR-AMC as substrate at 1 uM by fluorescence assay relative to control; parameters: scale not given: the % may be the effect or the level left; details: not given

Compound | Activity
N=C(N)Nc1ccc(C(=O)Oc2ccc(CC(=O)NCC(=O)O)n3ncnc23)cc1 | 100%
CS(=O)(=O)NC(=O)Cc1ccc(OC(=O)c2ccc(NC(=N)N)cc2)c2ncnn12 | 100%
N=C(N)Nc1ccc(C(=O)Oc2ccc(CC(=O)N(CC(=O)O)CC(=O)O)n3ncnc23)cc1 | 99.9%
N=C(N)Nc1ccc(C(=O)Oc2ccc(CC(=O)O)n3ncnc23)cc1F | 100%
N=C(N)Nc1ccc(C(=O)Oc2cc(CCC(=O)O)cn3ncnc23)cc1 | 100%
N=C(N)Nc1ccc(C(=O)Oc2ccc(CC(=O)NC(CC(=O)O)(CC(=O)O)CC(=O)O)n3ncnc23)cc1 | 100%
N=C(N)Nc1ccc(C(=O)Oc2ccc(CC(=O)O)n3ccnc23)cc1 | 101%
CONC(=N)c1ccc(C(=O)Oc2ccc(CC(=O)O)n3ncnc23)cc1 | -3.33%
N=C(N)Nc1ccc(C(=O)Oc2ccc(CC(=O)N[C@@H](CC(=O)O)C(=O)O)n3ncnc23)cc1 | 100%
N=C(N)Nc1ccc(C(=O)Oc2ccc(CC(=O)N[C@@H](CC(=O)O)C(=O)O)n3ccnc23)cc1 | 100%
N=C(N)Nc1ccc(C(=O)Oc2ccc(Cc3nn[nH]n3)n3ncnc23)cc1 | 100%
N=C(N)Nc1ccc(C(=O)Oc2ccc(CC(=O)O)n3ncnc23)cc1 | 100%
